Laboratory results: patent publication US8133888B2, “Hydrazide containing taxane conjugates” (Sun Pharma Advanced Research Company Ltd., priority 2008, dated 2012)

Legend:
[1] = Conversion of compound of formula I to the active taxane compound in human plasma (LC-MS/MS); format: in vitro ADME; conditions: 37° C.; for Peak Area of test compound / % Unconverted Compound I.04: human plasma; for Peak Area of docetaxel formed: docetaxel released from compound I.04 in human plasma
Protocol: The conversion of the test compound I.04 of the present invention to the active/parent taxane compound was determined in the human plasma sample. The test compound of 2000 ng per nil concentration was added to human plasma at ambient temperature and was kept in an incubator maintained at 37° C. Aliquots of this plasma sample were taken at definite time intervals and subjected to LC-MS/MS analysis. The samples were analyzed for amount of unconverted test compound and the amount of docetaxel formed in the test solution using LC-MS/MS operating in selected reaction monitoring (SRM) mode, as per follows: • Column: Hypurity Aquastar C-18, 50×2.1 mm, 3 micron • Mobile Phase: 10 mmol ammonium acetate-acetonitrile, 40:60 • Flow Rate: 250 μl/min • Oven Temperature: 45° C. • Retention time of compound I.04: 13.9 min • Retention time of docetaxel: 0.79 min
The parent ions>product ions monitored were the following: […]

[2] = Solubility of the taxane conjugates in water with added acid (visual clarity); format: physicochemical; conditions: 2 mg dispersed in 0.5 ml water, sonicated, 20 μl of 2.5M HCl added, sonicated about 2 min
Protocol: About 2 mg of the taxane conjugate of formula I was dispersed in 0.5 ml water (sterile) and sonicated for about 2 min. Small aliquots of a pharmaceutically accepted acid was added, sonicated for 2-3 min after each addition and observed for visual clarity.
For example, 2 mg of compound I.03 was dispersed in 0.5 ml water and sonicated for about 2 min.

[3] = cited from earlier work

CC(=O)O[C@@]12CO[C@@H]1C[C@H](O)[C@@]1(C)C(=O)[C@H](O)C3=C(C)[C@@H](OC(=O)[C@H](OC(=O)CCC(=O)NN4CCCCC4)[C@@H](NC(=O)OC(C)(C)C)c4ccccc4)C[C@@](O)([C@@H](OC(=O)c4ccccc4)[C@H]21)C3(C)C [Compound I.04, 10-Deacetyl-N-debenzoyl-N-(tert-butyloxycarbonyl)-2′-[(N-piperidin-1-yl)-succinamidoyl]taxol]
Peak Area of test compound ([1]; time 0 hrs): 24696932.5 counts
% Unconverted Compound I.04 ([1]; time 0.0 hrs): 100%
% Unconverted Compound I.04 ([1]; time 0.5 hrs): 59.1%
Peak Area of test compound ([1]; time 0.5 hrs): 19303514.4 counts
Peak Area of test compound ([1]; time 1 hrs): 16791382.3 counts
% Unconverted Compound I.04 ([1]; time 1.0 hrs): 40.3%
Peak Area of test compound ([1]; time 2 hrs): 11789443.5 counts
% Unconverted Compound I.04 ([1]; time 2.0 hrs): 4.7%
Peak Area of test compound ([1]; time 3 hrs): 6259891.0 counts
Peak Area of test compound ([1]; time 4 hrs): 3007853.1 counts
% Unconverted Compound I.04 ([1]; time 4.0 hrs): 0.1%
Peak Area of test compound ([1]; time 6 hrs): 904115.8 counts

CC(=O)O[C@H]1C(=O)[C@@]2(C)[C@H]([C@H](OC(=O)c3ccccc3)[C@]3(O)C[C@H](OC(=O)[C@H](O)[C@@H](NC(=O)c4ccccc4)c4ccccc4)C(C)=C1C3(C)C)[C@]1(OC(C)=O)CO[C@@H]1C[C@@H]2O [paclitaxel]
Solubility, visual clarity [2]: completely insoluble
Solubility in water (in words) [3]: poorly soluble in water

CC(=O)O[C@@]12CO[C@@H]1C[C@H](O)[C@@]1(C)C(=O)[C@H](O)C3=C(C)[C@@H](OC(=O)[C@H](O)[C@@H](NC(=O)OC(C)(C)C)c4ccccc4)C[C@@](O)([C@@H](OC(=O)c4ccccc4)[C@H]21)C3(C)C [Docetaxel, docetaxel, reference compound]
Solubility, visual clarity [2]: completely insoluble
Peak Area of docetaxel formed ([1]; time 0 hrs): 10447.0 counts
Peak Area of docetaxel formed ([1]; time 0.5 hrs): 70713.8 counts
Peak Area of docetaxel formed ([1]; time 1 hrs): 125083.0 counts
Peak Area of docetaxel formed ([1]; time 2 hrs): 243846.6 counts
Peak Area of docetaxel formed ([1]; time 3 hrs): 331134.0 counts
Peak Area of docetaxel formed ([1]; time 4 hrs): 464924.3 counts
Peak Area of docetaxel formed ([1]; time 6 hrs): 546298.2 counts
Solubility in water [3]: < 50 µg/mL

CC(=O)O[C@@]12CO[C@@H]1C[C@H](OC(=O)CCC(=O)NN1CCCCC1)[C@@]1(C)C(=O)[C@H](O)C3=C(C)[C@@H](OC(=O)[C@H](OC(=O)CCC(=O)NN4CCCCC4)[C@@H](NC(=O)OC(C)(C)C)c4ccccc4)C[C@@](O)([C@@H](OC(=O)c4ccccc4)[C@H]21)C3(C)C [Compound I.03, 10-Deacetyl-N-debenzoyl-N-(tert-butyloxycarbonyl)-2′,7-bis[(N-piperidin-1-yl)succinamidoyl]taxol]
Solubility, visual clarity [2]: clear solution
